From the NIST ThermoML archive (doi:10.1016/j.jct.2006.08.009)

Assay: mn = molality of the nth substance listed, in mol/kg
Settings: 350 kPa, Liquid; for apparent molar heat capacity: Extra sensitive DSC

O[C@H]1[C@H](O)[C@@H](O)[C@H](O)[C@@H](O)[C@H]1O [cis-1,2,3,5-trans-4,6-cyclohexanehexol] + O
Settings | apparent molar heat capacity [J/K/mol] | mass density [kg/m3]
278.15 K, m1 = 0.02 | 255 | 1001.54
278.15 K, m1 = 0.05 | 253 | 1004.04
278.15 K, m1 = 0.0814 | 256.7 | –
278.15 K, m1 = 0.1 | 267.7 | –
278.15 K, m1 = 0.1028 | 257.3 | –
278.15 K, m1 = 0.248 | 263.1 | 1020.11
278.15 K, m1 = 0.3973 | 262.1 | 1031.74
278.15 K, m1 = 0.4994 | 269.8 | 1039.85
283.15 K, m1 = 0.02 | 287 | 1001.49
283.15 K, m1 = 0.05 | 285 | 1003.92
283.15 K, m1 = 0.0814 | 292.1 | –
283.15 K, m1 = 0.1 | 295.6 | –
283.15 K, m1 = 0.1028 | 284.4 | –
283.15 K, m1 = 0.248 | 290.5 | 1019.58
283.15 K, m1 = 0.3973 | 289 | 1030.95
283.15 K, m1 = 0.4994 | 295.3 | 1038.94
288.15 K, m1 = 0.02 | 312 | 1000.86
288.15 K, m1 = 0.05 | 312 | 1003.27
288.15 K, m1 = 0.0814 | 323 | –
288.15 K, m1 = 0.1 | 319.7 | –
288.15 K, m1 = 0.1028 | 306 | –
288.15 K, m1 = 0.248 | 312.7 | 1018.73
288.15 K, m1 = 0.3973 | 311.2 | 1029.97
288.15 K, m1 = 0.4994 | 316.4 | 1037.9
293.15 K, m1 = 0.02 | 332 | –
293.15 K, m1 = 0.05 | 332 | –
293.15 K, m1 = 0.0814 | 342.6 | –
293.15 K, m1 = 0.1 | 339 | –
293.15 K, m1 = 0.1028 | 326 | –
293.15 K, m1 = 0.248 | 331.5 | –
293.15 K, m1 = 0.3973 | 329.9 | –
293.15 K, m1 = 0.4994 | 334.1 | –
298.15 K, m1 = 0.02 | 347 | 998.75
298.15 K, m1 = 0.05 | 348 | 1001.13
298.15 K, m1 = 0.0814 | 358.6 | 1003.66
298.15 K, m1 = 0.1 | 354.4 | –
298.15 K, m1 = 0.1028 | 343.7 | –
298.15 K, m1 = 0.248 | 347.5 | 1016.29
298.15 K, m1 = 0.3973 | 345.6 | 1027.32
298.15 K, m1 = 0.4994 | 349.1 | 1035.14
303.15 K, m1 = 0.02 | 362 | –
303.15 K, m1 = 0.05 | 362.7 | –
303.15 K, m1 = 0.0814 | 371.2 | –
303.15 K, m1 = 0.1 | 367.4 | –
303.15 K, m1 = 0.1028 | 358.9 | –
303.15 K, m1 = 0.248 | 361.3 | –
303.15 K, m1 = 0.3973 | 359 | –
303.15 K, m1 = 0.4994 | 361.9 | –
308.15 K, m1 = 0.02 | 374 | 995.69
308.15 K, m1 = 0.05 | 374.4 | 998.05
308.15 K, m1 = 0.0814 | 381.2 | 1000.51
308.15 K, m1 = 0.1 | 378.5 | 1001.45
308.15 K, m1 = 0.1028 | 371.6 | 1001.99
308.15 K, m1 = 0.248 | 373.2 | 1012.97
308.15 K, m1 = 0.3973 | 370.4 | 1023.83
308.15 K, m1 = 0.4994 | 373 | 1031.55
313.15 K, m1 = 0.02 | 386 | –
313.15 K, m1 = 0.05 | 385.5 | –
313.15 K, m1 = 0.0814 | 390.4 | –
313.15 K, m1 = 0.1 | 388.5 | –
313.15 K, m1 = 0.1028 | 382.8 | –
313.15 K, m1 = 0.248 | 383.6 | –
313.15 K, m1 = 0.3973 | 380.5 | –
313.15 K, m1 = 0.4994 | 382.7 | –
318.15 K, m1 = 0.02 | 395 | 991.86
318.15 K, m1 = 0.05 | 394.7 | 994.19
318.15 K, m1 = 0.0814 | 398.6 | 996.61
318.15 K, m1 = 0.1 | 397.3 | 997.52
318.15 K, m1 = 0.1028 | 392.5 | 998.07
318.15 K, m1 = 0.248 | 392.7 | 1008.92
318.15 K, m1 = 0.3973 | 389.4 | 1019.64
318.15 K, m1 = 0.4994 | 391.3 | 1027.27
323.15 K, m1 = 0.02 | 403 | –
